# In article PMC3078958 (Archives of biochemistry and biophysics, 2011):
# Biological target: T1, CsOxOx (Ceriporiopsis subvermispora bicupin oxalate oxidase, isoform-G) (Gelatoporia subvermispora, UniProt Q5ZH56)
# T1 sequence (Q5ZH56 21-461): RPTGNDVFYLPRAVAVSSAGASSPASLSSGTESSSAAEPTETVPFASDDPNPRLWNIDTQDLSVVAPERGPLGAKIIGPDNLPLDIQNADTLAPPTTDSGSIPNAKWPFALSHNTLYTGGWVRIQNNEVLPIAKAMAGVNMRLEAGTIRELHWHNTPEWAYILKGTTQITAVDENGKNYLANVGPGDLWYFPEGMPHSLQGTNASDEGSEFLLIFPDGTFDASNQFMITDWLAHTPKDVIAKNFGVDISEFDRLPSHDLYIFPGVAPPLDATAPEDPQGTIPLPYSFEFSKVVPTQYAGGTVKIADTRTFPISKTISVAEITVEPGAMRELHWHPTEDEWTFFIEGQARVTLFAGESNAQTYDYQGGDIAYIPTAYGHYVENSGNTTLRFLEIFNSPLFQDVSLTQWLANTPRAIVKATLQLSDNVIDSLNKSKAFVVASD
# Assay: continuous coupled HRP/ABTS assay of H2O2 production, […] nm
# Format: biochemical
row,Structure (SMILES),Ki
1,CC(=O)O [acetate],3.9 ± 0.6 mM
2,O=C(O)CO [glycolate],28 ± 5 mM
3,O=CC(=O)O [glyoxylate],15 ± 3 mM
4,O=C(O)C[C@H](O)C(=O)O [malate],52 ± 6 mM
5,O=C(O)CC(=O)O [malonate],3 ± 0.3 mM
6,CC(=O)C(=O)O [pyruvate],17 ± 3 mM
